The values that follow come from ChEMBL document CHEMBL4477252, “Optimization of microtubule affinity regulating kinase (MARK) inhibitors with improved physical properties” (Bioorg Med Chem Lett, 2016).

Data set [1] in a line: Oral bioavailability in Sprague-Dawley rat at 5 mL/kg administered through gastric gavage measured after 24 hrs by LC-MS/MS analysis. Format: ADME, organism-based. The settings on record: in vivo.
The target in data set [2] is MDR1 (ABCB1, P-glycoprotein) (Rattus norvegicus, UniProt P43245). Description: Substrate activity at rat MDR1 expressed in LLC-PK1 cells assessed as efflux ratio of permeability across basolateral to apical over apical to basolateral side at 5 uM. Format: ADME, cell-based.
Sequence of MDR1 (ABCB1, P-glycoprotein) (P43245 whole entry): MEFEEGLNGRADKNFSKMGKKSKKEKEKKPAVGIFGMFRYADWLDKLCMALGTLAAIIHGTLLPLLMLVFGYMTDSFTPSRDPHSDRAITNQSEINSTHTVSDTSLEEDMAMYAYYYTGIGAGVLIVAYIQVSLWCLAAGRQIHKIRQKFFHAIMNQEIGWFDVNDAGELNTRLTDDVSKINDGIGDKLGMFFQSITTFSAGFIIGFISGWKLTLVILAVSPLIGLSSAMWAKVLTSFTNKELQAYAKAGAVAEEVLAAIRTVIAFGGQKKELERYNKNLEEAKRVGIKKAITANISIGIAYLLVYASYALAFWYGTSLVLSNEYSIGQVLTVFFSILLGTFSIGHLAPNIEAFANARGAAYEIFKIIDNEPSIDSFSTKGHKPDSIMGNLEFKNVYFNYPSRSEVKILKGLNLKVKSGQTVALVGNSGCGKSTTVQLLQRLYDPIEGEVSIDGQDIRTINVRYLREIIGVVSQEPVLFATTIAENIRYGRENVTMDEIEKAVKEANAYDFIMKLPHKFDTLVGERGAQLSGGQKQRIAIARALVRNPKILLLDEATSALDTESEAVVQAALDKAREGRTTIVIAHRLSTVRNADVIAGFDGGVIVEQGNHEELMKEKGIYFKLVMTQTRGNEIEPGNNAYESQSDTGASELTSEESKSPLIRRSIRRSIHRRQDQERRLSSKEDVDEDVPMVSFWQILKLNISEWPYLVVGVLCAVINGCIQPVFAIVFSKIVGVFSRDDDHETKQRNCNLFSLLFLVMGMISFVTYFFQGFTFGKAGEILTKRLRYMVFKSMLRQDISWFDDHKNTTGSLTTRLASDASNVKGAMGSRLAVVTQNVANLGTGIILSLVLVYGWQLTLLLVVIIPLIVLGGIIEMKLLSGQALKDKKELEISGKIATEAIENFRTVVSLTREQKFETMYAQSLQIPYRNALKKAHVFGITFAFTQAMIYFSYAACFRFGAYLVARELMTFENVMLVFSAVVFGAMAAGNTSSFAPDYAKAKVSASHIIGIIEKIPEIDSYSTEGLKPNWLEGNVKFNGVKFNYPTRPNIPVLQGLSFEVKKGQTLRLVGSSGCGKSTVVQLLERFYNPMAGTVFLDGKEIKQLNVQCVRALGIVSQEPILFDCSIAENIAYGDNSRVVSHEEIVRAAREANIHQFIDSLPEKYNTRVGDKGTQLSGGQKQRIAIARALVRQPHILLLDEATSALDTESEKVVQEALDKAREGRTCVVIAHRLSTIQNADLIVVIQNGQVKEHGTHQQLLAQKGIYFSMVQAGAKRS
In data set [3] the target is T1, Inhibitor of nuclear factor kappa-B kinase subunit beta (Homo sapiens, UniProt O14920).
T1 sequence (O14920 whole entry): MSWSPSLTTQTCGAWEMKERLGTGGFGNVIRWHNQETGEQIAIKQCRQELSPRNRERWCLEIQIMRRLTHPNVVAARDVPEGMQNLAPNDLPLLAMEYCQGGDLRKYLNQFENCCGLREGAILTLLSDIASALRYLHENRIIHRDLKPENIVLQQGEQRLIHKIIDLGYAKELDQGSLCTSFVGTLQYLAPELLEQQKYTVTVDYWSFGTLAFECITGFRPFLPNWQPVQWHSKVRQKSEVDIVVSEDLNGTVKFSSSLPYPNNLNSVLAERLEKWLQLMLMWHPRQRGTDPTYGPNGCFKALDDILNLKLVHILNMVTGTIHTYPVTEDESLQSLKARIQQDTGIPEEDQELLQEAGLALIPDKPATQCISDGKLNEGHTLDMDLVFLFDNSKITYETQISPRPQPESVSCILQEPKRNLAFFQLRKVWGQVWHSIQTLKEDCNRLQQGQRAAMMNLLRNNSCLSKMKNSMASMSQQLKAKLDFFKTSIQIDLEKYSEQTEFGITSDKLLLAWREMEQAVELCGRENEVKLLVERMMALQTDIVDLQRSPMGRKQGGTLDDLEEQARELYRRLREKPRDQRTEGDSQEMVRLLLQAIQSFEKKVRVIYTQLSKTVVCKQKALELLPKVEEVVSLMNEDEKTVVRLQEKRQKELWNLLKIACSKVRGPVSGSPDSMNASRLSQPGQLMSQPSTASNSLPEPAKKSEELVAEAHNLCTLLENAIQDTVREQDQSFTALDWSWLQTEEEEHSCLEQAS
Description: Inhibition of full-length recombinant human GST-tagged IKK-beta expressed in baculovirus expression system by Z'-LYTE assay.

Data set [4] concerns the target Hepatocyte growth factor receptor (Homo sapiens, UniProt P08581). Kind of data set: Inhibition of recombinant human N-terminal His-tagged cytoplasmic MET (956 to 1390 residues) expressed in baculovirus expression system by Z'-LYTE assay.
Data set [5] can be described thus: Inhibition of full-length recombinant human GST-tagged PKG2 expressed in baculovirus expression system by Z'-LYTE assay.
Data set [6] has as its target Rho-associated protein kinase 1 (Homo sapiens, UniProt Q13464). Description: Inhibition of recombinant human GST-tagged ROCK1 catalytic domain expressed in baculovirus expression system by Z'-LYTE assay.
Data set [7] in a line: Solubility of the compound at pH 2. Format: physicochemical. The settings on record: buffer.
Data set [8] is described as follows: Solubility of the compound at pH 7. Format: physicochemical. The settings on record: buffer.
Data set [9] in a line: Half life in Sprague-Dawley rat at 1 mL/kg, iv administered through catheter measured after 24 hrs by LC-MS/MS analysis. Format: ADME, organism-based. The settings on record: in vivo.
Data set [10] can be described thus: Clearance in Beagle dog at 0.5 mL/kg, iv administered through catheter measured after 24 hrs by LC-MS/MS analysis. The class given is ADME, organism-based, Canis lupus familiaris. The settings on record: in vivo.
Data set [11] in a line: Volume of distribution in Beagle dog at 0.5 mL/kg, iv administered through catheter or 5 mL/kg, administered through gastric gavage measured after 24 hrs by LC-MS/MS analysis. Format: ADME, organism-based, Canis lupus familiaris. To be noted: in vivo.
Data set [12] in a line: Half life in Beagle dog at 0.5 mL/kg, iv administered through catheter or 5 mL/kg, administered through gastric gavage measured after 24 hrs by LC-MS/MS analysis. Format: ADME, organism-based, Canis lupus familiaris. To be noted: in vivo.

Values after ≈ are worked out from the molar mass of the structure shown.

Sequence of Rho-associated protein kinase 1 (Q13464 whole entry, the tested form may be a part): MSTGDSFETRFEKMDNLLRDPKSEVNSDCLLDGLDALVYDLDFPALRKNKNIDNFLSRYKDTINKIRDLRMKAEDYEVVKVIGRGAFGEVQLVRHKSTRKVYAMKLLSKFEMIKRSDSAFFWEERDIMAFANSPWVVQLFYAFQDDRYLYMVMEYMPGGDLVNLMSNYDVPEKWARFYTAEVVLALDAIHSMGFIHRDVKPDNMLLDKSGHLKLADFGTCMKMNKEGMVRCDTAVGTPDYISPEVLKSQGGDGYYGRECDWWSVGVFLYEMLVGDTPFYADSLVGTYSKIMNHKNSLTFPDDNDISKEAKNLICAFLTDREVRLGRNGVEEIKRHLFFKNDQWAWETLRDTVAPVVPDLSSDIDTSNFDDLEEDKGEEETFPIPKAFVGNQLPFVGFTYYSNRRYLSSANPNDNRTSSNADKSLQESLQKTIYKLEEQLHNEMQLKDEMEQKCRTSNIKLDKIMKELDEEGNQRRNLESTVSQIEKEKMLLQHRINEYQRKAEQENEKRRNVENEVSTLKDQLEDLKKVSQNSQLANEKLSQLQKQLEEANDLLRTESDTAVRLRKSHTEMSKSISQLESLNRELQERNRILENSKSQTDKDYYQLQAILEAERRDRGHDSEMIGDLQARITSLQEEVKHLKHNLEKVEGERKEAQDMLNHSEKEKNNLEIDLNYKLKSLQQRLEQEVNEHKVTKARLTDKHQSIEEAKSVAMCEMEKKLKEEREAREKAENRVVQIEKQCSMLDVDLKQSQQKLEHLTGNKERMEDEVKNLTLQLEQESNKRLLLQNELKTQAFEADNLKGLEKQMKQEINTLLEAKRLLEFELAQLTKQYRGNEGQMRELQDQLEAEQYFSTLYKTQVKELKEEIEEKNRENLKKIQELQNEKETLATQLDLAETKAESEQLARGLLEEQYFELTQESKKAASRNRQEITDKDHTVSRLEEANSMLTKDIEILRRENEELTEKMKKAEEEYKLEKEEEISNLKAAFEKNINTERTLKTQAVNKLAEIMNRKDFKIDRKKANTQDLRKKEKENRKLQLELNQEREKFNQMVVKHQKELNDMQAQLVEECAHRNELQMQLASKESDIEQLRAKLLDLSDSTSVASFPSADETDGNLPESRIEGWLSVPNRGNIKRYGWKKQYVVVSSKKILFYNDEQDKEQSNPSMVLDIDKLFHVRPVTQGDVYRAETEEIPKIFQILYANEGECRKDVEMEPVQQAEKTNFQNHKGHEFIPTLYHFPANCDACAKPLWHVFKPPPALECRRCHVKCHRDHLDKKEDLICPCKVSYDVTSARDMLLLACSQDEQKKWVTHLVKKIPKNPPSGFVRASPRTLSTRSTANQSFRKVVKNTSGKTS
Sequence of Hepatocyte growth factor receptor (P08581 whole entry, the tested form may be a part): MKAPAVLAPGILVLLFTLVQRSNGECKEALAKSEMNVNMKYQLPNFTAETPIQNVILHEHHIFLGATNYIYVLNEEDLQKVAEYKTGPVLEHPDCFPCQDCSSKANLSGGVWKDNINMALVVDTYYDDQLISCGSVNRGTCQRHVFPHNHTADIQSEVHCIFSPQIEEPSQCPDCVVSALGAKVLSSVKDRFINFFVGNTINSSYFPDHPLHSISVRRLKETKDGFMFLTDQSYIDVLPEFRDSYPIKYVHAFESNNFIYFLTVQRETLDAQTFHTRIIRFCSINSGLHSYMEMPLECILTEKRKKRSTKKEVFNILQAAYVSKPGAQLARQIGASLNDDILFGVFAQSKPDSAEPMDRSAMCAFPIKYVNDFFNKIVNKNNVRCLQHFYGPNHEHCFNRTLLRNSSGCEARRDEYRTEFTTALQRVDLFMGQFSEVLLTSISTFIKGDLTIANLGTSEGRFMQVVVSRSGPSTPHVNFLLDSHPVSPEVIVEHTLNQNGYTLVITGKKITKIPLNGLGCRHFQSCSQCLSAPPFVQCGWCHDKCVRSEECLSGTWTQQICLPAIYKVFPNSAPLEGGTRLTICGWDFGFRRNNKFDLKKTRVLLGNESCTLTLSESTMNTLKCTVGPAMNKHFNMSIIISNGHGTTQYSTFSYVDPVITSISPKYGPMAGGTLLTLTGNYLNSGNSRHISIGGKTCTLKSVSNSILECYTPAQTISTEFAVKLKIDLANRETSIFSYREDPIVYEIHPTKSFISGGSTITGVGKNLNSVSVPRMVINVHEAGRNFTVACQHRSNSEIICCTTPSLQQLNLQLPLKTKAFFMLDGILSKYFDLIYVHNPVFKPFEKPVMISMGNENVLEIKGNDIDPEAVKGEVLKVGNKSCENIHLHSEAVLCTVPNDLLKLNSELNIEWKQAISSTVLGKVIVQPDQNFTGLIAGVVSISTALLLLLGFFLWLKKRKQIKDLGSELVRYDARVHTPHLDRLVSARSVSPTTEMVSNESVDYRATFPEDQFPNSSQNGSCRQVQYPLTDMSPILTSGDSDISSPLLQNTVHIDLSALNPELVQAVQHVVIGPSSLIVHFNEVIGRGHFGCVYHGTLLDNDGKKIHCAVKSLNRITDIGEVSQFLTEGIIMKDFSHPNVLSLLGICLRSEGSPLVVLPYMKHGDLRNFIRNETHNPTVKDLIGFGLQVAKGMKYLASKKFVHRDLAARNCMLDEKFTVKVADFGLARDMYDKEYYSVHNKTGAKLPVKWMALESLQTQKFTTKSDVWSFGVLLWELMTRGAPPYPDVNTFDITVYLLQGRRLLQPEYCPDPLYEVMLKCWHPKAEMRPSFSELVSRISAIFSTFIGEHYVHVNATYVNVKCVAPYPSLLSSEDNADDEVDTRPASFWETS

The compound `Cn1cc(-c2cnc3c(-c4csc(C(=O)NCC(F)(F)F)c4)cnn3c2)cn1` came in with a bioavailability in data set [1] of 53%. Also, in data set [2], the efflux ratio at 5 µM is 1.9. Further, the concentration for half-maximal inhibition (IC50) in data set [3] was greater than 100000 nM; in [4] it was 4000 nM; in data set [5], 480 nM; in [6], 780 nM. The compound further gave a solubility in data set [7] of less than 3 µM.

For the compound `Cc1sc(C(=O)N[C@@H]2[C@H](N)CCCC2(F)F)cc1-c1cnn2cc(Cl)cnc12`, the solubility in [8] stood at 114 µM (≈ 48.6 µg/mL); in [7], 206 µM (≈ 87.7 µg/mL). For the same compound, the half-life in data set [9] was 42 min; in data set [12], 60 min. This compound also had a clearance in data set [10] of 27 mL/min/kg. In data set [11], this compound displayed a Vd of 2.3 L/kg. In addition, the IC50 turned out to be 31000 nM in data set [3], 8500 nM in [4], 990 nM in data set [5] and 2300 nM in data set [6].

Compound `O=C(NCC(F)(F)F)c1cc(-c2cnn3cc(-c4ccc(OCCN5CCCCC5)cc4)cnc23)cs1` registered a bioavailability in data set [1] of 46%. Further, the IC50 came to 55000 nM in [3], 1400 nM in data set [4] and 360 nM in data set [6].

As to `Cn1cc(-c2cnc3c(-c4csc(C(=O)N[C@@H]5CCCC[C@@H]5N)c4)cnn3c2)cn1` (racemic), the efflux ratio at 5 µM in data set [2] was determined as 54. The solubility in data set [8] stood at 68 µM (≈ 28.7 µg/mL). The 50% inhibitory concentration (IC50) is greater than 10000 nM in data set [3], 410 nM in data set [4] and 17 nM in data set [6].

A word on the bioavailability: it is the share of a dose that reaches the circulation, judged against a reference dose that is usually intravenous. A high value points to good availability. By efflux ratio is commonly meant the permeability from basolateral to apical divided by that in the opposite direction, in the common usage. Usually IC50 stands for the concentration that gives 50% inhibition. What is called solubility is the dissolved amount per volume that the medium holds. Read a high solubility as a readily soluble substance. Broadly, the half-life is the time needed for the level to fall by half in the phase considered. A word on the clearance: it is the rate of elimination divided by the concentration.
